From patent US8722671B2, “Isoquinoline derivatives” (Sanofi, priority 2005, dated 2014)

Target: T1, ROCKII or ROKα (Homo sapiens, UniProt O75116)
T1 construct: purchased Upstate 14-451
Assay: Determination of Rho kinase inhibition (33P-ATP Streptavidin Flash Plate assay)
Assay type: biochemical
Details: ATP 40 μM, activity denoted as pIC50 class
Method: Determination of Rho Kinase Inhibition
To measure Rho-kinase inhibition, IC50 values were determined according to the following protocol:
Buffer: 25 mM Tris pH7.5; 0.02% BSA; 5% Glycerol; 0.008% Triton X100; 2% DMSO, 1 mM DTT; 1 mM MgCl2; 0.5 μCi/well γ^33P ATP
Enzyme: ROCKII or ROKα) (Upstate, Catalog #14-451 Lot #24880U) 0.1 ng/μl
Final concentration of ATP in reaction mixture 40 μM
Biotinylated substrate, diluted to 0.25 μM with buffer described above (without ATP)
• 1. 10 μl Tris buffer (±Inhibitor) • 2. Add 30 μl of enzyme solution • 3. Start the reaction with 30 μL of mix substrate/ATP/ATP33 • 4. Incubate for 20 min at room temperature • 5. Stop reaction with 30 μL of 50 mM EDTA • 6. Transfer 50 μL of stopped solution to Streptavidin Flash Plate plus, Perkin Elmer, SMP 103A • 7. Incubate for 30 min at RT • 8. Wash 4 times with 300 μl of PBS/0.1% Tween 20 • 9. Radioactivity in the well was determined

T1 sequence (O75116 11-552 limits assumed): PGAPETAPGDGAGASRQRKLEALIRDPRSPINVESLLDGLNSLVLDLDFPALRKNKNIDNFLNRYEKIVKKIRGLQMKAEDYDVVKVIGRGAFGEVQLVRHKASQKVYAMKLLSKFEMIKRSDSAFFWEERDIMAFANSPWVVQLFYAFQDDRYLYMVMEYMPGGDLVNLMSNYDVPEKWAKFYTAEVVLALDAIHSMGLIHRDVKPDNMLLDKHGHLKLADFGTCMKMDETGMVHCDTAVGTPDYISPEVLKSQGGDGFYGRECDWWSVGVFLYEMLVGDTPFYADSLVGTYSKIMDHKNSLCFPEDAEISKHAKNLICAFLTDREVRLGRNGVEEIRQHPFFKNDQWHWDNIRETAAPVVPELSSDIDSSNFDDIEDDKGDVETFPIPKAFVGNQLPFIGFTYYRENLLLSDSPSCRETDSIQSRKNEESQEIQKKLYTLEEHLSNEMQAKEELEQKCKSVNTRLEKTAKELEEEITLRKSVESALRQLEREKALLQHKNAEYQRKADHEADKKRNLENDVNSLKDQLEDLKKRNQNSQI

SMILES | IC50
c1ccc(Cc2c(OC3CCNCC3)ccc3cnccc23)cc1 [Compound 29, 5-Benzyl-6-(piperidin-4-yloxy)-isoquinoline] | +++ (5.0≦pIC50<6.0)
Brc1c(OC2CCNCC2)ccc2cnccc12.Cl [Compound 41] | ++++ (6.0≦pIC50)
Cl.Ic1c(OC2CCNCC2)ccc2cnccc12 [Compound 44] | ++++ (6.0≦pIC50)
O=C(O)C(F)(F)F.c1ccc2oc(-c3c(OC4CCNCC4)ccc4cnccc34)cc2c1 [Compound 59] | ++++ (6.0≦pIC50)
OCc1cccc(-c2c(OC3CCNCC3)ccc3cnccc23)c1 [Compound 67] | +++ (5.0≦pIC50<6.0)
COc1ccc(-c2c(OC3CCNCC3)ccc3cnccc23)cc1N [Compound 72] | ++++ (6.0≦pIC50)
c1ccc(-c2cc3cnccc3cc2OC2CCNCC2)cc1 [Compound 81] | ++++ (6.0≦pIC50)
O=C(O)C(F)(F)F.c1ccc(C(CN2CCC(Oc3ccc4cnccc4c3)CC2)c2ccccc2)cc1 [Compound 100] | +++ (5.0≦pIC50<6.0)
FC(F)(F)CCN1CCC(Oc2ccc3cnccc3c2)CC1.O=C(O)C(F)(F)F [Compound 111] | +++ (5.0≦pIC50<6.0)
COc1ccc2cc(CN3CCC(Oc4ccc5cnccc5c4)CC3)ccc2c1.O=C(O)C(F)(F)F [Compound 120] | ++++ (6.0≦pIC50)
Cc1cc(OC2CCNCC2)c(C)c2ccncc12.Cl [Compound 133] | ++++ (6.0≦pIC50)
Cc1c(OC2CCNCC2)cc2ccncc2c1C.Cl [Compound 134] | +++ (5.0≦pIC50<6.0)
CN1CCCC(COc2ccc3cnccc3c2Br)C1.O=C(O)C(F)(F)F (stereo not drawn) [Compound 138] | ++++ (6.0≦pIC50)

Continued, values first:

IC50 | SMILES
+++ (5.0≦pIC50<6.0) | O=C(O)C(F)(F)F.c1cc2cc(OC3CCCNC3)ccc2cn1 (stereo not drawn) [Compound 145]
++++ (6.0≦pIC50) | Cl.Clc1cncc2ccc(OC3CCNCC3)cc12 [Compound 156, 4-Chloro-6-(piperidin-4-yloxy)-isoquinoline hydrochloride]
++++ (6.0≦pIC50) | COc1cc(Nc2cc3cc(OC4CCNCC4)ccc3cn2)cc(OC)c1OC [Compound 228]
++++ (6.0≦pIC50) | Cl.c1cc2c(cc1Nc1cc3cc(OC4CCNCC4)ccc3cn1)OCO2 [Compound 261]
+++ (5.0≦pIC50<6.0) | COc1cccc(Nc2cc3c(C4CC4)c(OC4CCNCC4)ccc3cn2)c1.Cl [Compound 265]
+++ (5.0≦pIC50<6.0) | CCc1cncc2ccc(OC3CCNCC3)cc12.Cl [Compound 266, 4-Ethyl-6-(piperidin-4-yloxy)-isoquinoline]
++++ (6.0≦pIC50) | Cl.Clc1cc(OC2CCNCC2)cc2ccncc12 [Compound 269, 8-Chloro-6-(Piperidin-4-yloxy)-isoquinoline hydrochloride]
++++ (6.0≦pIC50) | Clc1cc2cnccc2c(Cl)c1OC1CCNCC1 [Compound 378, 5,7-Dichloro-6-(piperidin-4-yloxy)-isoquinoline]
